Earlier results, collected in patent US20120282652A1, “PREPARATION OF PEPTIDE MIXTURES BY PROTEASE CATALYSIS DESIGNED TO PROVIDE USEFUL BIOLOGICAL AND PHYSICAL PROPERTIES” (priority 2011, published 2012).

What was measured:
[1] = tested on: S. aureus, E. coli, and P. aeruginosa; conditions: peptide synthesized by traditional chemical methods
[2] = Cheng et al.

LKLLKKLLKKLKKLLKKL [amphipathic model peptide synthesized by traditional chemical methods]
antimicrobial activity compared with diblock KKKKKKKKKLLLLLLLLL or alternating KLKLKLKLKLKLKLKLKL [1]: better antimicrobial activity

[γ-Glu-Cys]2-Gly
Cd(II) at which binding saturated (absorbance at 240 nm, Mehra): 0.5 equivalents | Cd(II)/peptide ratio up to which absorption intensity is enhanced (absorption at 250 nm, Kobayashi and Yoshimura): ≤ 1.4

[γ-Glu-Cys]4-Gly [[(γ-EC)4]-Gly]
order of binding efficiency of the metals [2]: Cd>Zn>Ni>Co
